Source: patent US11707442B2, “Antibacterial and antifungal compounds” (The General Hospital Corporation, priority 2015, dated 2023)
In brackets after ≈: the same amount, converted by molar mass. Read-outs that look alike come from different tables or passages of the source.

What was measured:
[1] = system: Exponential-phase MRSA cells; assay: Killing kinetics assay; format: cell-based, Staphylococcus aureus; details: 10×MIC, result in words
Method: Killing kinetics assay. An S. aureus overnight culture was diluted 1:10,000 in 25 ml fresh TSB in a 250 ml flask. In order to obtain exponential-phase cells, the diluted cell suspension was incubated at 37° C., with shaking at 225 rpm for 4 h until the OD600 nm was 0.4 (˜2×10^7 CFU/ml). 0.5 ml of the exponential phase cell culture was added to the wells of a 2 ml deep well assay block (Corning Costar 3960) containing 0.5 ml of pre-warmed TSB with twice the desired concentrations of compounds. The assay block was sealed with a gas-permeable Breathe-Easy membrane and incubated at 37° C. shaking at 225 rpm. At specific times, 50 μl samples were removed, serially diluted and spot-plated onto tryptic soy agar (TSA, BD) plates to enumerate the number of cells. These experiments were conducted in triplicate.
Colony forming unit counts of cells were measured by serial dilution and plating on TSA plates. The data points on the x-axis are below the level of detection (2×10^2 CFU/mL). Results are shown as means±s.d.; n=3.

P. aeruginosa = assay: MIC, broth microdilution; format: cell-based, Pseudomonas aeruginosa; details: Pseudomonas aeruginosa; P. aeruginosa PA14; read-out: Minimum inhibitory concentration
S. aureus = assay: Minimal inhibitory concentration (MIC), broth microdilution; format: cell-based, Staphylococcus aureus; details: Staphylococcus aureus
Outline: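 MIC values against methicillin-resistant Staphylococcus aureus were determined by standard broth microdilution following Clinical and Laboratory Standards Institute guidance (CLSI document M07-A8). Each well held 100 μl of test compound plus bacterial cells in MH broth, with the starting OD600 set to 0.03. Plates were incubated 18 hrs at 35° C. and absorbance was then read at 595 nm.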

E. aerogenes ATCC 13048 = assay: MIC, broth microdilution; format: cell-based, Enterobacter aerogenes; details: Klebsiella aerogenes, ATCC13048; E. aerogenes ATCC 13048; read-out: Minimum inhibitory concentration
Outline: (§1)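 MIC by CLSI broth microdilution (M07-A8) in MH broth; E. aerogenes, K. pneumoniae and A. baumannii pre-grown in LB, E. faecium in BHI, at 37° C. Inoculum at initial OD600 0.03, incubated 18 hrs at 35° C., growth read as absorbance at 595 nm.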

[2] = system: primary human hepatocytes; assay: Hepatotoxicity (WST-1); format: cell-based; details: at 32 μg/ml, 24 h
Method: Hepatotoxicity. Cryopreserved primary human hepatocytes were purchased from Cell Resource Core at Massachusetts General Hospital (Boston, Mass., USA). The hepatocytes were cultured in collagen sandwiched configuration in 24-well plates, as described previously (See, e.g., Dunn, J. C., et al. Hepatocyte function and extracellular matrix geometry: long-term culture in a sandwich configuration. FASEB J. 3, 174-177 (1989); Dunn, J. C., et al. Hepatocytes in collagen sandwich: evidence for transcriptional and translational regulation. J. Cell Biol. 116, 1043-1053 (1992); and Sharma, N. S. et al. Metabolic profiling based quantitative evaluation of hepatocellular metabolism in presence of adipocyte derived extracellular matrix. PLoS ONE 6, e20137 (2011)). Briefly, 0.4×10^6 live cells were seeded in 24-well plates coated with rat tail collagen type I. In order for cells to attach onto collagen gel, the 24-well plates were incubated in a humidified 5% CO2 incubator at 37° C. for 4 hours. The cells were washed and then cultured in 0.5 ml standard hepatocyte culture medium consisting of pre-warmed DMEM media supplemented with 10% FBS, 0.5 U/ml insulin, 14 ng/ml glucagon, 20 ng/ml EGF, 7.5 μg/ml hydrocortisone and 200 U/ml penicillin-streptomycin. The cell cultures were incubated in a humidified 5% CO2 incubator at 37° C. At 24 h after seeding, a top layer of collagen gel was deposited on the hepatocytes attached to the bottom collagen layer and incubated for another 24 h, then the hepatocytes were treated with a range of concentrations of retinoids for 24 h. […] WST-1 reduction was measured at absorbance 450 nm. The percent […] relative to that of the no-treatment control was calculated. […]
0.4×10^6 primary human hepatocytes cultured in a collagen gel sandwich system were treated with a range of concentration of the synthetic retinoids for 24 h. Cell viability was calculated based on the absorbance readings at 450 nm at 4 h after adding WST-1 using the following equation: % viability=(Abssample−Absblank)/(Absnon-treated−Absblank)×100. […]

E. faecium = assay: MIC, broth microdilution; format: cell-based, Enterococcus faecium; details: for MIC: Enterococcus faecium; for susceptibility of E. faecium: result in words
Outline: as §1

K. pneumonia WGLW2 = assay: MIC, broth microdilution; format: cell-based, Klebsiella pneumoniae; details: Klebsiella pneumoniae; K. pneumonia WGLW2; read-out: Minimum inhibitory concentration
Outline: as §1

[3] = MRSA, 28 clinical MRSA isolates, 28/28 isolates, read-out: MIC
[4] = S. aureus BF1, read-out: Minimum inhibitory concentration
[5] = S. aureus BF2, read-out: Minimum inhibitory concentration
[6] = S. aureus BF3, read-out: Minimum inhibitory concentration
[7] = S. aureus BF4, read-out: Minimum inhibitory concentration
[8] = S. aureus BF5, read-out: Minimum inhibitory concentration
[9] = S. aureus BF6, read-out: Minimum inhibitory concentration
[10] = S. aureus BF7, read-out: Minimum inhibitory concentration
[11] = S. aureus BF8, read-out: Minimum inhibitory concentration
[12] = S. aureus BF9, read-out: Minimum inhibitory concentration
[13] = S. aureus BF10, read-out: Minimum inhibitory concentration
[14] = S. aureus BF11, read-out: Minimum inhibitory concentration
[15] = S. aureus JE2 (wild-type), read-out: MIC
[16] = S. aureus MW2, read-out: Minimum inhibitory concentration
[17] = S. aureus NE896 (JE2 yjbH::ϕNΣ)
[18] = S. aureus NE1645 (JE2 manA::ϕNΣ)
[19] = S. aureus NE1756 (JE2 graS::ϕNΣ)
[20] = S. aureus VRS1, read-out: Minimum inhibitory concentration
[21] = methicillin resistant S. aureus (MRSA) strain MW2, read-out: MIC
[22] = E. faecium D24, read-out: Minimum inhibitory concentration
[23] = E. faecium D25, read-out: Minimum inhibitory concentration
[24] = E. faecium D29, read-out: Minimum inhibitory concentration
[25] = E. faecium WB213, read-out: Minimum inhibitory concentration

O=C(O)c1ccc2cc(-c3ccc(O)c(C45CC6CC(CC(C6)C4)C5)c3)ccc2c1 [CD437, 6-(4-hydroxy-3-tricyclo[3.3.1.13,7]dec-1-ylphenyl)-2-naphthalenecarboxylic acid]
killing kinetics [1]: fast killing kinetics | MIC (P. aeruginosa): > 64 mg/L | MIC (S. aureus; [3]): ≤ 2 mg/L | MIC (S. aureus; [4]): 2 mg/L (≈ 5.02 µM) | MIC (S. aureus; [5]): 1 mg/L (≈ 2.51 µM) | MIC (S. aureus; [6]): 1 mg/L (≈ 2.51 µM) | MIC (S. aureus; [7]): 2 mg/L (≈ 5.02 µM) | MIC (S. aureus; [8]): 1 mg/L (≈ 2.51 µM) | MIC (S. aureus; [9]): 1 mg/L (≈ 2.51 µM) | MIC (S. aureus; [10]): 1 mg/L (≈ 2.51 µM) | MIC (S. aureus; [11]): 1 mg/L (≈ 2.51 µM) | MIC (S. aureus; [12]): 1 mg/L (≈ 2.51 µM) | MIC (S. aureus; [13]): 1 mg/L (≈ 2.51 µM) | MIC (S. aureus; [14]): 1 mg/L (≈ 2.51 µM) | MIC (S. aureus; [15]): 1.5 mg/L (≈ 3.76 µM) | MIC (S. aureus; [16]): 1 mg/L (≈ 2.51 µM) | MIC (S. aureus; [17]): 2 mg/L (≈ 5.02 µM) | MIC (S. aureus; [18]): 3 mg/L (≈ 7.53 µM) | MIC (S. aureus; [19]): 2 mg/L (≈ 5.02 µM) | MIC (S. aureus; [20]): 1 mg/L (≈ 2.51 µM) | MIC (S. aureus; [21]): 1 mg/L (≈ 2.51 µM) | MIC (E. aerogenes ATCC 13048): > 64 mg/L | toxicity to primary human hepatocytes [2]: did not cause significant toxicity | MIC (E. faecium; [22]): 1 mg/L (≈ 2.51 µM) | MIC (E. faecium; [23]): 1 mg/L (≈ 2.51 µM) | MIC (E. faecium; [24]): 1 mg/L (≈ 2.51 µM) | MIC (E. faecium; [25]): 1 mg/L (≈ 2.51 µM) | susceptibility of E. faecium (E. faecium): susceptible | MIC (K. pneumonia WGLW2): > 64 mg/L

O=C(O)c1ccc(-c2ccc3cc(O)c(C45CC6CC(CC(C6)C4)C5)cc3c2)cc1 [CD1530, 4-(6-hydroxy-7-tricyclo[3.3.1.13,7]dec-1-yl-2-naphthalenyl)-benzoic acid]
killing kinetics [1]: fast killing kinetics | MIC (P. aeruginosa): > 64 mg/L | MIC (S. aureus; [3]): ≤ 2 mg/L | MIC (S. aureus; [4]): 2 mg/L (≈ 5.02 µM) | MIC (S. aureus; [5]): 1 mg/L (≈ 2.51 µM) | MIC (S. aureus; [6]): 1 mg/L (≈ 2.51 µM) | MIC (S. aureus; [7]): 1 mg/L (≈ 2.51 µM) | MIC (S. aureus; [8]): 1 mg/L (≈ 2.51 µM) | MIC (S. aureus; [9]): 1 mg/L (≈ 2.51 µM) | MIC (S. aureus; [10]): 1 mg/L (≈ 2.51 µM) | MIC (S. aureus; [11]): 1 mg/L (≈ 2.51 µM) | MIC (S. aureus; [12]): 2 mg/L (≈ 5.02 µM) | MIC (S. aureus; [13]): 1 mg/L (≈ 2.51 µM) | MIC (S. aureus; [14]): 1 mg/L (≈ 2.51 µM) | MIC (S. aureus; [15]): 1.5 mg/L (≈ 3.76 µM) | MIC (S. aureus; [16]): 1 mg/L (≈ 2.51 µM) | MIC (S. aureus; S. aureus MW2 mutant SP1-8 (graS)): 1.5 mg/L (≈ 3.76 µM) | MIC (S. aureus; S. aureus MW2 mutant SP1-48 (graS, manA)): 2 mg/L (≈ 5.02 µM) | MIC (S. aureus; S. aureus MW2 mutant SP1-74 (graS, manA, MW2474)): 2 mg/L (≈ 5.02 µM) | MIC (S. aureus; S. aureus MW2 mutant SP1-100 (graS, manA, MW2474)): 2 mg/L (≈ 5.02 µM) | MIC (S. aureus; S. aureus MW2 mutant SP2-13 (yjbH)): 1.5 mg/L (≈ 3.76 µM) | MIC (S. aureus; S. aureus MW2 mutant SP2-52 (yjbH, dltB)): 1.5 mg/L (≈ 3.76 µM) | MIC (S. aureus; S. aureus MW2 mutant SP2-59 (yjbH, dltB, manA)): 2 mg/L (≈ 5.02 µM) | MIC (S. aureus; S. aureus MW2 mutant SP2-65 (yjbH, dltB, manA, MW1685)): 2 mg/L (≈ 5.02 µM) | MIC (S. aureus; S. aureus MW2 mutant SP2-100 (yjbH dltB, manA, MW1685)): 2 mg/L (≈ 5.02 µM) | MIC (S. aureus; S. aureus MW2 serial passage culture SP1-1 (no mutated gene)): 1 mg/L (≈ 2.51 µM) | MIC (S. aureus; S. aureus MW2 serial passage culture SP2-1 (no mutated gene)): 1 mg/L (≈ 2.51 µM) | MIC (S. aureus; [17]): 2 mg/L (≈ 5.02 µM) | MIC (S. aureus; [18]): 3 mg/L (≈ 7.53 µM) | MIC (S. aureus; [19]): 2 mg/L (≈ 5.02 µM) | MIC (S. aureus; [20]): 1 mg/L (≈ 2.51 µM) | MIC (S. aureus; [21]): 1 mg/L (≈ 2.51 µM) | MIC (E. aerogenes ATCC 13048): > 64 mg/L | toxicity to primary human hepatocytes [2]: did not cause significant toxicity | MIC (E. faecium; E. faecium C68, read-out: Minimum inhibitory concentration): 2 mg/L (≈ 5.02 µM) | MIC (E. faecium; E. faecium D14, read-out: Minimum inhibitory concentration): 2 mg/L (≈ 5.02 µM) | MIC (E. faecium; [22]): 1 mg/L (≈ 2.51 µM) | MIC (E. faecium; [23]): 1 mg/L (≈ 2.51 µM) | MIC (E. faecium; [24]): 1 mg/L (≈ 2.51 µM) | MIC (E. faecium; E. faecium E007, read-out: Minimum inhibitory concentration): 2 mg/L (≈ 5.02 µM) | MIC (E. faecium; [25]): 1 mg/L (≈ 2.51 µM) | MIC (E. faecium; E. faecium WC176, read-out: Minimum inhibitory concentration): 2 mg/L (≈ 5.02 µM) | MIC (E. faecium; E. faecium, (range given for E. faecium and E. faecalis), read-out: MIC): 2 to 4 mg/L (≈ 5.02 to 10 µM) | susceptibility of E. faecium (E. faecium): susceptible | MIC (K. pneumonia WGLW2): > 64 mg/L
